Experimental data: publication PMC12801355, “Peptide Amphiphiles Hitchhike on Endogenous Biomolecules for Enhanced Cancer Imaging and Therapy” (Advanced Materials (Deerfield Beach, Fla.), 2025)
Where a SMILES comes first, the peptide text is derived from it. The star is where a group is joined. Palmitoyl = CCCCCCCCCCCCCCCC(=O)*

Key:
Assay in all cases: Mass spectrometry of proteins pulled down with biotinylated SA‐E (SA‐Eb) from human plasma
Assay type in all cases: binding
human plasma proteins [1] = target: T1, human plasma proteins (Homo sapiens, UniProt P05090)
T1 construct: incubated with 50% pooled human plasma at 37 °C for 2 h; from tissue; host or cells: pooled human plasma (50%)
T1 sequence (P05090 21-189): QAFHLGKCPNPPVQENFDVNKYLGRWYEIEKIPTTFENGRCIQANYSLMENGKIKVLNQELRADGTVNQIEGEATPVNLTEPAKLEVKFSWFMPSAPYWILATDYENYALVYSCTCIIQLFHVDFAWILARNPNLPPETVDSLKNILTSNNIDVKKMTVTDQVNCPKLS
Experimental: (§1) Samples were prepared for mass spectrometry analysis via a pull‐down of a biotinylated version of the SA‐E probe (SA‐Eb, 100 µM) incubated with 50% pooled human plasma at 37 °C for 2 h. Before incubation with the SA‐Eb‐plasma mixture, magnetic streptavidin‐coated beads (Dynabeads MyOne Streptavidin T1, Invitrogen, 65601) were washed with PBS (10 mM, pH 7.4) then blocked with 1% casein equal to the total initial volume of beads for 15 min at room temperature. After blocking, beads were washed again with PBS. Beads were then combined with SA‐Eb‐plasma solution, 25 µL beads to 200 µL mixture. This mixture was then incubated at room temperature for 30 min. After incubation, the remaining solution was removed, and the beads were washed five times with PBS. Bound SA‐Eb was eluted from beads in 30 µL 0.5% Triton X‐100 solution. Magnetic beads were then removed, and the elution was collected for analysis. For plasma control, the incubation with SA‐Eb step was skipped, and 50% plasma in PBS was incubated with beads and washed and eluted using the same method as the SA‐Eb‐plasma solution. The elution solutions were then analyzed by the Proteomics Shared Resource facility at Oregon Health & Science University (See Supporting Information for details).
(§2) Sample Preparation. Eluted plasma samples were dried down and stored at -80°C. Samples were thawed at room temperature for 10 min, and 75 µL of SDS protein extraction buffer (5% SDS, 50 mM […]; TEAB) was added to each sample. Samples were shaken in a Thermo mixer for 10 minutes at room temperature and centrifuged at 10,000 g for 5 min. Each sample was transferred from a 0.5 mL tube to a 1.5 mL LoBind centrifuge tube. Samples were reduced by adding 3.4 µL of 0.5 M dithiothreitol and incubated at 95 °C for 10 min. Samples were alkylated by the addition of 6.8 µL of 0.5 M iodoacetamide and were incubated at room temperature for 30 min in the dark. Samples were then acidified by the addition of 8.52 µL of 12% phosphoric acid, and 562 µL of SDS protein binding buffer (90% methanol, 100 mM TEAB, pH 7.51). Samples were transferred 165 µL at a time to S-trap micro columns (Protifi, Farmingdale, NY) and inserted into 1.5 mL of polypropylene tubes. Samples were centrifuged at 4,000 g for 3 min between each addition of the sample. S-trap columns were washed 6 times using 150 µL of 90% methanol containing 100 mM of TEAB followed by centrifugation at 4,000g for 3 min between each wash step. S-trap columns containing the bound sample proteins were transferred to 1.5 mL LoBind centrifuge tubes and 40 µL of 80 ng/µL sequencing grade modified trypsin (Pierce TM Trypsin Protease MS-Grade, XG348166) in 50 mM TEAB was added. S-trap columns were loosely capped, and digestion was performed at 37°C overnight in a humidified chamber.
(§3) After completion of digestion, peptides were eluted by sequential addition of 40 µL of TEAB, 40 µL of 0.2% aqueous formic acid, and 40 µl of 50% acetonitrile, 0.2% formic acid, with centrifugation at 4,000 g for 4 min between each addition of elution buffer. The elution fractions were combined and then dried by vacuum centrifugation. Samples were reconstituted by adding 20 µL of 5% formic acid, shaking at 37 °C, and spinning at 15,000 g for 5 min. The supernatant of each sample was transferred to an auto-sample vial.
(§4) Data analysis. Mass spectrometry data from all samples were processed using COMET/PAWS against Uniprot_Human_database. Comet (v. 2016.01, rev. 3)^8 was used to search MS2 Spectra against a January 2023 version of canonical FASTA protein database containing human uniprot sequences, and concatenated sequence-reversed entries to estimate error thresholds and 179 common contaminant sequences and their reversed forms. The database processing was performed using python scripts available at https://github.com/pwilmart/fasta_utilities.git and Comet results were processed using the PAW pipeline2 from https://github.com/pwilmart/PAW_pipeline.git.

human plasma proteins [2] = target: T2, human plasma proteins (Homo sapiens, UniProt P02647)
T2 construct: incubated with 50% pooled human plasma at 37 °C for 2 h; from tissue; host or cells: pooled human plasma (50%)
T2 sequence (P02647 19-267): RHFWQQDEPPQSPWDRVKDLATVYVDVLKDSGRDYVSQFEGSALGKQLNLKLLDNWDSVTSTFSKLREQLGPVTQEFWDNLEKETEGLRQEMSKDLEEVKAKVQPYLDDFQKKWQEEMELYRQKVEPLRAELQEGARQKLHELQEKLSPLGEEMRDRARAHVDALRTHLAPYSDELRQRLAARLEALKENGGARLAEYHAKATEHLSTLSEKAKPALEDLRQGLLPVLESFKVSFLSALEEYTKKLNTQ
Experimental: as §1, §2, §3, §4

human plasma proteins [3] = target: T3, human plasma proteins (Homo sapiens, UniProt P02652)
T3 construct: incubated with 50% pooled human plasma at 37 °C for 2 h; from tissue; host or cells: pooled human plasma (50%)
T3 sequence (P02652 19-100): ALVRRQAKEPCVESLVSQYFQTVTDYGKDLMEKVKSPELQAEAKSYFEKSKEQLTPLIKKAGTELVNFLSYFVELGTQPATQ
Experimental: as §1, §2, §3, §4

human plasma proteins [4] = target: T4, human plasma proteins (Homo sapiens, UniProt P02656)
T4 construct: incubated with 50% pooled human plasma at 37 °C for 2 h; from tissue; host or cells: pooled human plasma (50%)
T4 sequence (P02656 21-99): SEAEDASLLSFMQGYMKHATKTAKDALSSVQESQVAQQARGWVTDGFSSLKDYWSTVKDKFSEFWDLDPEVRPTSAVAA
Experimental: as §1, §2, §3, §4

human plasma proteins [5] = target: T5, human plasma proteins (Homo sapiens, UniProt P02649)
T5 construct: incubated with 50% pooled human plasma at 37 °C for 2 h; from tissue; host or cells: pooled human plasma (50%)
T5 sequence (P02649 19-317): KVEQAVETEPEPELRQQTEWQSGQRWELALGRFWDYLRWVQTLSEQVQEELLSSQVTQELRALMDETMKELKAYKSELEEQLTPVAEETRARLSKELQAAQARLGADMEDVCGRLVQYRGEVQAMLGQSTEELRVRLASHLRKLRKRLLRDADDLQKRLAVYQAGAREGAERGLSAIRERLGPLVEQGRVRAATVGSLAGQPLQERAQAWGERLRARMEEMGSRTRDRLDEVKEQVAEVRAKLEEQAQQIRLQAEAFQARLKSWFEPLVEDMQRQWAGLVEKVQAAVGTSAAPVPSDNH
Experimental: as §1, §2, §3, §4

human plasma proteins [6] = target: T6, human plasma proteins (Homo sapiens, UniProt O14791)
T6 construct: incubated with 50% pooled human plasma at 37 °C for 2 h; from tissue; host or cells: pooled human plasma (50%)
T6 sequence (O14791 28-398): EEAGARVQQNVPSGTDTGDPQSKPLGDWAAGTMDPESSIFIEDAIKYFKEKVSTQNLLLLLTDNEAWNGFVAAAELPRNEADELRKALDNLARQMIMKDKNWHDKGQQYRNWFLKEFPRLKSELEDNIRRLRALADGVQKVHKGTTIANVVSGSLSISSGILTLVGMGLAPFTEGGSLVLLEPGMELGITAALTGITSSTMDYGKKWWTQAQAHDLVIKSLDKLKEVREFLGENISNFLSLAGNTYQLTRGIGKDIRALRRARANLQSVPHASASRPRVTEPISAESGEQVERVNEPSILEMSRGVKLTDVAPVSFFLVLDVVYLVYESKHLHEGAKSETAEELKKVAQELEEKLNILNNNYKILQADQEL
Experimental: as §1, §2, §3, §4

human plasma proteins [7] = target: T7, human plasma proteins (Homo sapiens, UniProt O95445)
T7 construct: incubated with 50% pooled human plasma at 37 °C for 2 h; from tissue; host or cells: pooled human plasma (50%)
T7 sequence (O95445 whole entry): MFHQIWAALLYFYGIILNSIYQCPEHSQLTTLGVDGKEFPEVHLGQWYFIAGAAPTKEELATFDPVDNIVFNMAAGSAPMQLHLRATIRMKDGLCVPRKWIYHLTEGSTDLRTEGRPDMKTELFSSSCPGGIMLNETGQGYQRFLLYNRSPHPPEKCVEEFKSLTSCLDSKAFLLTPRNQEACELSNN
Experimental: as §1, §2, §3, §4

Structure (SMILES): CCCCCCCCCCCCCCCC(=O)NCC(=O)NCC(=O)NCC(=O)N[C@@H](Cc1c[nH]cn1)C(=O)N[C@@H](C)C(=O)N[C@@H](C)C(=O)N[C@@H](CC(N)=O)C(=O)NCC(=O)N[C@@H](CCC(=O)O)C(=O)N[C@@H](CCC(=O)O)C(=O)N[C@@H](CS)C(=O)N[C@@H](CCC(=O)O)C(=O)O [SA‐E] (Palmitoyl-GGGHAANGEECE-OH)
- Percentage, Apolipoprotein D (human plasma proteins [1]; replicate 1): 0.6%
- Total Counts, Apolipoprotein D (human plasma proteins [1]; replicate 1): 22
- Percentage, Apolipoprotein D (human plasma proteins [1]; replicate 2): 0.8%
- Total Counts, Apolipoprotein D (human plasma proteins [1]; replicate 2): 22
- Percentage, Apolipoprotein A-I (human plasma proteins [2]; replicate 1): 15.7%
- Total Counts, Apolipoprotein A-I (human plasma proteins [2]; replicate 1): 560
- Percentage, Apolipoprotein A-I (human plasma proteins [2]; replicate 2): 21.1%
- Total Counts, Apolipoprotein A-I (human plasma proteins [2]; replicate 2): 600
- Percentage, Apolipoprotein A-II (human plasma proteins [3]; replicate 1): 0.2%
- Total Counts, Apolipoprotein A-II (human plasma proteins [3]; replicate 1): 6
- Percentage, Apolipoprotein A-II (human plasma proteins [3]; replicate 2): 0.2%
- Total Counts, Apolipoprotein A-II (human plasma proteins [3]; replicate 2): 6
- Percentage, Apolipoprotein C-III (human plasma proteins [4]; replicate 1): 0.1%
- Total Counts, Apolipoprotein C-III (human plasma proteins [4]; replicate 1): 4
- Percentage, Apolipoprotein C-III (human plasma proteins [4]; replicate 2): 0.2%
- Total Counts, Apolipoprotein C-III (human plasma proteins [4]; replicate 2): 5
- Percentage, Apolipoprotein E (human plasma proteins [5]; replicate 1): 1.8%
- Total Counts, Apolipoprotein E (human plasma proteins [5]; replicate 1): 66
- Percentage, Apolipoprotein E (human plasma proteins [5]; replicate 2): 2.1%
- Total Counts, Apolipoprotein E (human plasma proteins [5]; replicate 2): 59
- Percentage, Apolipoprotein L1 (human plasma proteins [6]; replicate 1): 0.2%
- Total Counts, Apolipoprotein L1 (human plasma proteins [6]; replicate 1): 7
- Percentage, Apolipoprotein L1 (human plasma proteins [6]; replicate 2): 0.2%
- Total Counts, Apolipoprotein L1 (human plasma proteins [6]; replicate 2): 7
- Percentage, Apolipoprotein M (human plasma proteins [7]; replicate 1): 0.3%
- Total Counts, Apolipoprotein M (human plasma proteins [7]; replicate 1): 11
- Percentage, Apolipoprotein M (human plasma proteins [7]; replicate 2): 0.4%
- Total Counts, Apolipoprotein M (human plasma proteins [7]; replicate 2): 12
